The structures appear in SMILES notation. Converted amounts (≈) assume the structure as drawn.

The values below come from ChEMBL document CHEMBL4613212, “Insights of synthetic analogues of anti-leprosy agents” (Bioorg Med Chem, 2019).

For series [1], the system named is Mycobacterium leprae. The series can be described thus: Anti-leprotic activity against Mycobacterium leprae primary cultures at 4 weeks assessed as ATP level per 10^7 cells at 5.0 mg/L measured by bioluminescence assay (reference value: 314 +/- 46 pg). It is filed as functional.
The subject of series [2] is Mycobacterium leprae. The series can be described thus: Anti-leprotic activity against Mycobacterium leprae primary cultures at 4 weeks assessed as ATP level per 10^7 cells at 10.0 mg/L measured by bioluminescence assay (reference value: 314 +/- 46 pg). It is filed as functional.
The test system of series [3] is Mycobacterium leprae. The series can be described thus: Anti-leprotic activity against Mycobacterium leprae primary cultures at 4 weeks assessed as ATP level per 10^7 cells at 15.0 mg/L measured by bioluminescence assay (reference value: 314 +/- 46 pg). It counts as functional.
Series [4] relates to Mycobacterium leprae. The series can be described thus: Anti-leprotic activity against Mycobacterium leprae primary cultures at 4 weeks assessed as [3H]thymidine uptake per 5 times 10^7 cells at 5.0 mg/L (reference value: 0.95 +/- 0.01 pmol). It counts as functional.
Series [5] deals with Mycobacterium leprae. The series can be described thus: Anti-leprotic activity against Mycobacterium leprae primary cultures at 4 weeks assessed as [3H]thymidine uptake per 5 times 10^7 cells at 10.0 mg/L (reference value: 0.95 +/- 0.01 pmol). It is filed as functional.
For series [6], the system named is Mycobacterium leprae. The series can be described thus: Anti-leprotic activity against Mycobacterium leprae primary cultures at 4 weeks assessed as [3H]thymidine uptake per 5 times 10^7 cells at 15.0 mg/L (reference value: 0.95 +/- 0.01 pmol). It counts as functional.
Series [7] deals with Mycobacterium leprae. The series can be described thus: Anti-leprotic activity against Mycobacterium leprae subcultures at 4 weeks assessed as ATP level per 10^7 cells at 5.0 mg/L measured by bioluminescence assay (reference value: 462 +/- 64 pg). It counts as functional.
Series [8] has as its system Mycobacterium leprae. The series can be described thus: Anti-leprotic activity against Mycobacterium leprae subcultures at 4 weeks assessed as ATP level per 10^7 cells at 10.0 mg/L measured by bioluminescence assay (reference value: 462 +/- 64 pg). It counts as functional.
In series [9] the test system is Mycobacterium leprae. The series can be described thus: Anti-leprotic activity against Mycobacterium leprae subcultures at 4 weeks assessed as ATP level per 10^7 cells at 15.0 mg/L measured by bioluminescence assay (reference value: 462 +/- 64 pg). It is filed as functional.
Series [10] concerns Mycobacterium leprae. The series can be described thus: Anti-leprotic activity against Mycobacterium leprae subcultures at 4 weeks assessed as [3H]thymidine uptake per 5 times 10^7 cells at 5.0 mg/L (reference value: 1.28 +/- 0.14 pmol). It is filed as functional.
Series [11] deals with Mycobacterium leprae. The series can be described thus: Anti-leprotic activity against Mycobacterium leprae subcultures at 4 weeks assessed as [3H]thymidine uptake per 5 times 10^7 cells at 10.0 mg/L (reference value: 1.28 +/- 0.14 pmol). It is filed as functional.
In series [12] the test system is Mycobacterium leprae. The series can be described thus: Anti-leprotic activity against Mycobacterium leprae subcultures at 4 weeks assessed as [3H]thymidine uptake per 5 times 10^7 cells at 15.0 mg/L (reference value: 1.28 +/- 0.14 pmol). It is filed as functional.
The test system of series [13] is Mycobacterium leprae. The series can be described thus: Antimicrobial activity against Mycobacterium leprae. It is filed as functional.
Series [14] relates to Mycobacterium leprae. The series can be described thus: Anti-leprotic activity against Mycobacterium leprae infected in BALB/c weanling mouse assessed as bacteria killing at 100 mg/kg, ip administrated for 60 days and measured after 1 year by most probable number technique analysis relative to control. It is filed as functional.
Series [15] has as its system Mycobacterium leprae. The series can be described thus: Anti-leprotic activity against Mycobacterium leprae infected in BALB/c weanling mouse assessed as bacteria killing at 100 mg/kg, ip administrated for 60 days and measured after 1 year by Spearman-Karber technique analysis relative to control. It counts as functional.
Series [16] relates to Mycobacterium leprae. The series can be described thus: Anti-leprotic activity against rifampicin-susceptible Mycobacterium leprae subcultures at 4 weeks assessed as ATP level per 10^7 cells at 0.2 mg/L measured by bioluminescence assay (reference value: 425 +/- 64 pg). It counts as functional.
In series [17] the test system is Mycobacterium leprae. The series can be described thus: Anti-leprotic activity against rifampicin-susceptible Mycobacterium leprae subcultures at 4 weeks assessed as ATP level per 10^7 cells at 0.025 mg/L measured by bioluminescence assay (reference value: 425 +/- 64 pg). It is filed as functional.
Series [18] has as its system Mycobacterium leprae. The series can be described thus: Anti-leprotic activity against rifampicin-susceptible Mycobacterium leprae primary cultures at 4 weeks assessed as ATP level per 10^7 cells at 0.05 mg/L measured by bioluminescence assay (reference value: 332 +/- 46 pg). It is filed as functional.
The test system of series [19] is Mycobacterium leprae. The series can be described thus: Anti-leprotic activity against rifampicin-susceptible Mycobacterium leprae primary cultures at 4 weeks assessed as ATP level per 10^7 cells at 0.025 mg/L measured by bioluminescence assay (reference value: 332 +/- 46 pg). It is filed as functional.
For series [20], the system named is Mycobacterium leprae. The series can be described thus: Anti-leprotic activity against rifampicin-susceptible Mycobacterium leprae subcultures at 4 weeks assessed as ATP level per 10^7 cells at 0.1 mg/L measured by bioluminescence assay (reference value: 425 +/- 64 pg). It is filed as functional.
Series [21] concerns Mycobacterium leprae. The series can be described thus: Anti-leprotic activity against rifampicin-susceptible Mycobacterium leprae subcultures at 4 weeks assessed as ATP level per 10^7 cells at 0.05 mg/L measured by bioluminescence assay (reference value: 425 +/- 64 pg). It is filed as functional.
For series [22], the system named is Mycobacterium leprae. The series can be described thus: Anti-leprotic activity against rifampicin-susceptible Mycobacterium leprae primary cultures at 4 weeks assessed as ATP level per 10^7 cells at 0.1 mg/L measured by bioluminescence assay (reference value: 332 +/- 46 pg). It is filed as functional.
The test system of series [23] is Mycobacterium leprae. The series can be described thus: Anti-leprotic activity against rifampicin-susceptible Mycobacterium leprae primary cultures at 4 weeks assessed as ATP level per 10^7 cells at 0.2 mg/L measured by bioluminescence assay (reference value: 332 +/- 46 pg). It is filed as functional.
The test system of series [24] is Mycobacterium leprae. The series can be described thus: Anti-leprotic activity against rifampicin-susceptible Mycobacterium leprae primary cultures at 4 weeks assessed as [3H]thymidine uptake per 5 times 10^7 cells at 0.025 mg/L incubated for 24 hrs (reference value: 1.05 +/- 0.16 pmol). It is filed as functional.
For series [25], the system named is Mycobacterium leprae. The series can be described thus: Anti-leprotic activity against rifampicin-susceptible Mycobacterium leprae primary cultures at 4 weeks assessed as [3H]thymidine uptake per 5 times 10^7 cells at 0.05 mg/L incubated for 24 hrs (reference value: 1.05 +/- 0.16 pmol). It counts as functional.
Series [26] deals with Mycobacterium leprae. The series can be described thus: Anti-leprotic activity against rifampicin-susceptible Mycobacterium leprae primary cultures at 4 weeks assessed as [3H]thymidine uptake per 5 times 10^7 cells at 0.1 mg/L incubated for 24 hrs (reference value: 1.05 +/- 0.16 pmol). It counts as functional.
In series [27] the test system is Mycobacterium leprae. The series can be described thus: Anti-leprotic activity against rifampicin-susceptible Mycobacterium leprae primary cultures at 4 weeks assessed as [3H]thymidine uptake per 5 times 10^7 cells at 0.2 mg/L incubated for 24 hrs (reference value: 1.05 +/- 0.16 pmol). It counts as functional.
Series [28] deals with Mycobacterium leprae. The series can be described thus: Anti-leprotic activity against rifampicin-susceptible Mycobacterium leprae subcultures at 4 weeks assessed as [3H]thymidine uptake per 5 times 10^7 cells at 0.025 mg/L incubated for 24 hrs (reference value: 1.41 +/- 0.20 pmol). It counts as functional.
Series [29] relates to Mycobacterium leprae. The series can be described thus: Anti-leprotic activity against rifampicin-susceptible Mycobacterium leprae subcultures at 4 weeks assessed as [3H]thymidine uptake per 5 times 10^7 cells at 0.05 mg/L incubated for 24 hrs (reference value: 1.41 +/- 0.20 pmol). It counts as functional.
Series [30] deals with Mycobacterium leprae. The series can be described thus: Anti-leprotic activity against rifampicin-susceptible Mycobacterium leprae subcultures at 4 weeks assessed as [3H]thymidine uptake per 5 times 10^7 cells at 0.1 mg/L incubated for 24 hrs (reference value: 1.41 +/- 0.20 pmol). It counts as functional.
The subject of series [31] is Mycobacterium leprae. The series can be described thus: Anti-leprotic activity against rifampicin-susceptible Mycobacterium leprae subcultures at 4 weeks assessed as [3H]thymidine uptake per 5 times 10^7 cells at 0.2 mg/L incubated for 24 hrs (reference value: 1.41 +/- 0.20 pmol). It counts as functional.
Series [32] can be described thus: Plasma concentration in rifampin-susceptible Mycobacterium leprae infected in BALB/c mouse at 6 mg/kg administered with food daily for 1 week by high-pressure liquid chromatography analysis. It counts as ADME, organism-based. Conditions: po.
Series [33] in a line: Plasma concentration in rifampin-susceptible Mycobacterium leprae infected in BALB/c mouse at 6 mg/kg administered with food daily for 2 weeks by high-pressure liquid chromatography analysis. The following applies: po. It counts as ADME, organism-based.
Series [34] in a line: Plasma concentration in rifampin-susceptible Mycobacterium leprae infected in BALB/c mouse at 6 mg/kg administered with food daily for 4 weeks by high-pressure liquid chromatography analysis. It is filed as ADME, organism-based. The following applies: po.
Series [35] concerns Mycobacterium tuberculosis. The series can be described thus: Antimycobacterial activity against Mycobacterium tuberculosis H37Rv infected in CF-1 mouse assessed as change in survival time at 5 mg/kg administrated daily for 14 days with food relative to control. It is filed as functional.
Series [36] relates to Mycobacterium tuberculosis. The series can be described thus: Antimycobacterial activity against Mycobacterium tuberculosis H37Rv infected in CF-1 mouse assessed as change in survival time at 11 mg/kg administrated daily for 14 days with food relative to control. It is filed as functional.
Series [37] relates to Mycobacterium tuberculosis. The series can be described thus: Antimycobacterial activity against Mycobacterium tuberculosis H37Rv infected in CF-1 mouse assessed as change in survival time at 3 mg/kg administrated daily for 14 days with food relative to control. It is filed as functional.

In the case of `COc1cc(Cc2cnc(N)nc2N)cc(OC)c1Br` [BRODIMOPRIM], the Activity in the series on Mycobacterium leprae [1] came out at 296 pg; with Mycobacterium leprae [2], 108 pg; in the series with Mycobacterium leprae [3], 0 pg; in the series on Mycobacterium leprae [4] it was 0.88 pmol; in the series with Mycobacterium leprae [5], 0.24 pmol; in the series on Mycobacterium leprae [6] it was 0 pmol. Besides, the Activity with Mycobacterium leprae [7] is given as 346 pg; with Mycobacterium leprae [8], 109 pg; in the series on Mycobacterium leprae [9], 0 pg; in the series on Mycobacterium leprae [10] it was 1.1 pmol; in the series on Mycobacterium leprae [11] it was 0.27 pmol; in the series with Mycobacterium leprae [12] it was 0 pmol. 0.025 µg/mL (≈ 0.0737 µM) was the least that counted as inhibitory against Mycobacterium leprae [13] (MIC).
Turning to `NC[C@H]1O[C@H](O[C@H]2[C@H](O)[C@@H](O[C@H]3O[C@H](CO)[C@@H](O)[C@H](N)[C@H]3O)[C@H](N)C[C@@H]2N)[C@H](O)[C@@H](O)[C@@H]1O` [KANAMYCIN], the Activity in the series with Mycobacterium leprae [14] is 99.8%; in the series with Mycobacterium leprae [15], 99.7%.
Consider `CO[C@H]1/C=C/O[C@@]2(C)Oc3c(C)c(O)c4c(=O)c(c5oc6cc(N7CCN(CC(C)C)CC7)cc(O)c6nc-5c4c3C2=O)NC(=O)/C(C)=C\C=C\[C@H](C)[C@H](O)[C@@H](C)[C@@H](O)[C@@H](C)[C@H](OC(C)=O)[C@@H]1C` [RIFALAZIL], for which the Activity in the series with Mycobacterium leprae [16] was 0 pg; in the series on Mycobacterium leprae [17], 211 pg; in the series with Mycobacterium leprae [18], 0 pg; in the series with Mycobacterium leprae [19], 227 pg; with Mycobacterium leprae [20] it was 0 pg; in the series with Mycobacterium leprae [21], 0 pg. The Activity was determined as 0 pg in the series with Mycobacterium leprae [22]; 0 pg with Mycobacterium leprae [23]; 0.72 pmol in the series with Mycobacterium leprae [24]; 0 pmol in the series with Mycobacterium leprae [25]; 0 pmol with Mycobacterium leprae [26]; 0 pmol in the series on Mycobacterium leprae [27]. For the same compound, the Activity is recorded as 0.73 pmol in the series with Mycobacterium leprae [28], 0 pmol with Mycobacterium leprae [29], 0 pmol with Mycobacterium leprae [30] and 0 pmol in the series with Mycobacterium leprae [31].
Turning to `OO` [HYDROGEN PEROXIDE], in series [32], the concentration at 168 h is 42 ng/mL. The concentration at 336 h in series [33] turned out to be 50 ng/mL. Further, the concentration at 672 h in [34] came out at 55 ng/mL.
`Brc1ccc(/N=N/c2ccc(NCCCN3CCCCC3)c3c2CCCC3)cc1`: the MST in [35] amounted to 19 days; in series [36], 38 days; in [37], 11 days.
